Measured values taken from PMC4646021, “Streptococcus pneumoniae NanC” (The Journal of Biological Chemistry, 2015).

Columns and labels:
[1] = target: T1, NanC (scheme A) (Streptococcus pneumoniae, UniProt A0A0H2UQE4); assay: X-ray crystal structure, soak; format: binding
T1 construct: gene SP_1326; residues 28-740, signal peptide removed (CBM plus catalytic domain); pET21b, E. coli Rosetta (DE3), nickel column; 82 kDa

[2] = target: T2, NanC CBM (Streptococcus pneumoniae, UniProt A0A0H2UQE4); assay: isothermal titration calorimetry; format: binding; conditions: 20 mM Tris pH 8, 50 mM NaCl; stoichiometry fixed 1:1; CBM site
T2 construct: gene SP_1326; purified by scheme A
T2 sequence (A0A0H2UQE4 entry or part of it): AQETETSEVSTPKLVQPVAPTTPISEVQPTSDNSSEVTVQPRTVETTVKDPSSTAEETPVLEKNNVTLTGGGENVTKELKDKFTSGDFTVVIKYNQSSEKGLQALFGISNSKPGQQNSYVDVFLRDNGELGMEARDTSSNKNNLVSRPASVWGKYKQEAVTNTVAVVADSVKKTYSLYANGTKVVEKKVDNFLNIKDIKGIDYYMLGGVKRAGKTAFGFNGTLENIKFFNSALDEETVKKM

T1 sequence (A0A0H2UQE4 entry or part of it): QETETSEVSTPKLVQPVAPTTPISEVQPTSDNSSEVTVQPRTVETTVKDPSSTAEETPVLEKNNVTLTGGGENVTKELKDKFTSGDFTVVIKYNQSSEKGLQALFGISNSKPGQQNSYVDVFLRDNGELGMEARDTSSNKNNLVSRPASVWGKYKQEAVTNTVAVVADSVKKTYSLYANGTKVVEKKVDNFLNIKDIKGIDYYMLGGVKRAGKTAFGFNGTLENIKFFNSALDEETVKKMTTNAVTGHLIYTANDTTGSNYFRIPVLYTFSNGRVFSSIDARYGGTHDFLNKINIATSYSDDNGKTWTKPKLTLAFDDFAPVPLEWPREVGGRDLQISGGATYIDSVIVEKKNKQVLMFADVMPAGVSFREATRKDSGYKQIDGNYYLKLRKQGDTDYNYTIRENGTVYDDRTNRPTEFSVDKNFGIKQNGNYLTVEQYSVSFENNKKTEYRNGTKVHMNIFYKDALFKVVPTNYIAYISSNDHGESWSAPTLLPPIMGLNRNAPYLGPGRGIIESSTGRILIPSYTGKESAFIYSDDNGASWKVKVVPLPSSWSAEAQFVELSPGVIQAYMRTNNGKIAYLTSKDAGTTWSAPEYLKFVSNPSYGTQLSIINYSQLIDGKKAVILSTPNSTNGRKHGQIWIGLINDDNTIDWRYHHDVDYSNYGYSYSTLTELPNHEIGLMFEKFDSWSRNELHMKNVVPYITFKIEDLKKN

| SMILES | Kd [2] [µM] | also measured |
| --- | --- | --- |
| CC(=O)N[C@H]1[C@H]([C@H](O)[C@H](O)CO)OC(F)(C(=O)O)C(F)[C@@H]1O (stereo partly shown) [2,3F-Neu5Ac] |  | X-ray crystal structure, soak ([1]; covalent, active site Tyr-695 adduct 3F-β-Neu5Ac, 5 mM, 45 min soak, intact compound also in CBM site): 3F-β-Neu5Ac was covalently bound to Tyr-695 in an unstrained |
| CC(=O)N[C@H]1[C@H]([C@H](O)[C@H](O)CO)O[C@@](O[C@H]2[C@@H](O)[C@@H](CO)O[C@@H](O[C@H]3[C@H](O)[C@@H](O)C(O)O[C@@H]3CO)[C@@H]2O)(C(=O)O)C[C@@H]1O (stereo partly shown) [3′SL] | 1480 |  |
| CC(=O)N[C@H]1[C@H]([C@H](O)[C@H](O)CO)O[C@@](OC[C@H]2O[C@@H](O[C@H]3[C@H](O)[C@@H](O)C(O)O[C@@H]3CO)[C@H](O)[C@@H](O)[C@H]2O)(C(=O)O)C[C@@H]1O (stereo partly shown) [6′SL] | 1600 |  |
| CCC(CC)O[C@@H]1C=C(C(=O)O)C[C@H](N)[C@H]1NC(C)=O [OC] |  | X-ray crystal structure, soak ([1]; catalytic active site, 20 mM, 5 min soak): OC binds in the NanC active site |
